What was measured:
[1] = target: T1, P2RY12 (Homo sapiens, UniProt Q9H244); assay: SPR (Biacore T200, His-captured purified P2RY12, steady-state affinity); antagonism of 2MesADP signalling in CHO-P2RY12 cells; format: binding
[2] = target: T1, P2RY12; assay: biochemical

T1 sequence (Q9H244 whole entry, one chain of several): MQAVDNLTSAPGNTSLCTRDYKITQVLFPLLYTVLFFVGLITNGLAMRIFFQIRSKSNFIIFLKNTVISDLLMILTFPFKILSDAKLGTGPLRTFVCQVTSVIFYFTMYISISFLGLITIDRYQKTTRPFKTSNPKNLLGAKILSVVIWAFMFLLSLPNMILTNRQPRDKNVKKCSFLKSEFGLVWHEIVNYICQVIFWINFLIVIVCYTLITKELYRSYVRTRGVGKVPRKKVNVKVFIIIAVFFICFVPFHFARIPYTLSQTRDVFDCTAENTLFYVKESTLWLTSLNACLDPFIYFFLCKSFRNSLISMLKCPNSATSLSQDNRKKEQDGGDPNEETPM

SMILES	Kd [1]	Kd [2]
CC(C)=CC/C=C(\C)[C@H]1CC[C@]2(C)[C@@H]1[C@H](O)C[C@@H]1[C@@]3(C)CC[C@H](O[C@@H]4O[C@H](CO)[C@@H](O)[C@H](O)[C@H]4O[C@@H]4O[C@H](CO)[C@@H](O)[C@H](O)[C@H]4O)C(C)(C)[C@@H]3CC[C@]12C [Rg5, Ginsenoside Rg5]	330 nM	–
CCCSc1nc(N[C@@H]2C[C@H]2c2ccc(F)c(F)c2)c2nnn([C@@H]3C[C@H](OCCO)[C@@H](O)[C@H]3O)c2n1 [Ticagrelor]	–	102 nM

— publication PMC9411522, “Ginsenoside Rg5 allosterically interacts with P2RY12 and ameliorates deep venous thrombosis by counteracting neutrophil NETosis and inflammatory response” (Frontiers in Immunology, 2022)
